Measured values as given in ChEMBL document CHEMBL5335795, “Development of potent isoflavone-based formyl peptide receptor 1 (FPR1) antagonists and their effects in gastric cancer cell models” (Eur J Med Chem, 2023).
Activity calls are given as the source filed them. No cut-off for these calls is given here.

Legend:
[1] = target: T1, fMet-Leu-Phe receptor (Homo sapiens, UniProt P21462); assay: Antagonist activity against human FPR1 expressed in human HL-60 cells assessed as inhibition of fMLF-induced calcium mobilization preincubated for 30 mins followed by fMLF addition and measured every 5s for 240s by Fluo4AM dye based scanning fluorimetric analysis; format: functional, cell-based
T1 sequence (P21462 whole entry): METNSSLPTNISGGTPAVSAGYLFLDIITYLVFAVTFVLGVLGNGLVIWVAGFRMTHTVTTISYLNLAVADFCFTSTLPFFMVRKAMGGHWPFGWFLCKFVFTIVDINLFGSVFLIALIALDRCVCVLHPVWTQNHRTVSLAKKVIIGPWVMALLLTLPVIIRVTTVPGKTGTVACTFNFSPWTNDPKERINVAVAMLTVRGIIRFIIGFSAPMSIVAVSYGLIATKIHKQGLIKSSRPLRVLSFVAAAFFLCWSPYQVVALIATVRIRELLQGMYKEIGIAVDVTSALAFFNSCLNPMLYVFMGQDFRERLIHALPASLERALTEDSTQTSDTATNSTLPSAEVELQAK

[2] = target: T2, N-formyl peptide receptor 2 (Homo sapiens) (UniProt P25090); assay: Antagonist activity against human FPR2 expressed in human HL-60 cells assessed as inhibition of WKYMVM-induced calcium mobilization preincubated for 10 mins followed by WKYMVM addition and measured every 5s for 240s by Fluo4AM dye based scanning fluorimetric analysis; format: functional, cell-based; details: time 840.0 sec
T2 sequence (whole entry): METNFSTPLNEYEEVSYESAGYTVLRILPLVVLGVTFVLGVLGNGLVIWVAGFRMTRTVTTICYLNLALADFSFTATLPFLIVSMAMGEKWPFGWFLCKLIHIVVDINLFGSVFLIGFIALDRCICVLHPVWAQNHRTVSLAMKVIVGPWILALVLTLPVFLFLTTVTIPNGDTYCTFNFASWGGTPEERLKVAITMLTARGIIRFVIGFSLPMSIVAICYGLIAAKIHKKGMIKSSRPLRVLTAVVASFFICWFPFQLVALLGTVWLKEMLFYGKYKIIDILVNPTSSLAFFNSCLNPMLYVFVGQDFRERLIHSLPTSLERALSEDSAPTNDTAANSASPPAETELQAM

[3] = system: NCI-N87; assay: Induction of apoptosis in human NCI-N87 cells assessed as viable cells at 5 uM measured after 48 hrs by Muse Annexin V cytofluorimetric analysis (reference value: 69.9%); format: functional; details: read-out: Activity
[4] = Metabolic stability of the compound in rat liver microsomes assessed as parent compound remaining at 10 uM preincubated for 10 mins followed by NADPH addition and measured after 30 mins by LC-MS analysis; format: ADME, Microsome; details: time 40 min, read-out: Stability
[5] = system: NCI-N87; assay: Induction of apoptosis in human NCI-N87 cells assessed as viable cells at 5 uM measured after 48 hrs in presence of FPR1 antagonist, fMLF by Muse Annexin V cytofluorimetric analysis (reference value: […]%); format: functional; details: read-out: Activity
[6] = system: AGS; assay: Induction of apoptosis in human AGS cells assessed as viable cells at 5 uM measured after 48 hrs by Muse Annexin V cytofluorimetric analysis (reference value: 85.9%); format: functional; details: read-out: Activity
[7] = system: AGS; assay: Induction of apoptosis in human AGS cells assessed as viable cells at 5 uM measured after 48 hrs in presence of FPR1 antagonist, fMLF by Muse Annexin V cytofluorimetric analysis (reference value: 87.1%); format: functional; details: read-out: Activity
[8] = target: T1, fMet-Leu-Phe receptor; assay: Antagonist activity against human FPR1 expressed in human HL-60 cells assessed as inhibition of fMLF-induced calcium mobilization preincubated for 10 mins followed by fMLF addition and measured every 5s for 240s by Fluo4AM dye based scanning fluorimetric analysis; format: functional, cell-based

SMILES	IC50 [1] [nM]	inhibition [2]	other results
COc1ccccc1-c1c(C)oc2cc(OC(=O)c3ccco3)ccc2c1=O	1900		
CCCCCc1cc2c(=O)c(-c3ccccc3OC)c(C)oc2cc1OC(C)=O		inactive	
CCCCCCc1cc2c(=O)c(-c3ccccc3OC)c(C)oc2cc1OC(C)=O			viability at 5 µM [3]: 45.1%; remaining at 0.5 h, 10 µM [4]: 0%; viability at 5 µM [5]: 45.5%; viability at 5 µM [6]: 52%; viability at 5 µM [7]: 46.9%
CCCCCCC(=O)Oc1cc2oc(C)c(-c3cccc(OC)c3)c(=O)c2cc1C		inactive	
CCCc1cc2c(=O)c(-c3ccccc3OC)c(C)oc2cc1OC(=O)N(C)C		inactive	
CCc1cc2c(=O)c(-c3nc4ccccc4n3C)c(C)oc2cc1OC(C)=O	1400		
CCCCCCc1cc2c(=O)c(-c3nc4ccccc4n3C)c(C)oc2cc1OC(C)=O	310		
Cc1oc2cc(OC(=O)c3ccco3)ccc2c(=O)c1-c1nc2ccccc2n1C	3100		
COc1ccccc1-c1c(C(F)(F)F)oc2cc(OC(=O)c3ccco3)ccc2c1=O	440		
CCCCCCc1cc2c(=O)c(-c3cccc(OC)c3)c(C(F)(F)F)oc2cc1OC(C)=O		inactive	
CCCCCCC(=O)Oc1cc2oc(C)c(-c3ccccc3OC)c(=O)c2cc1C			remaining at 0.5 h, 10 µM [4]: 0%
CCCc1cc2c(=O)c(-c3cccc(OC)c3)c(C)oc2cc1OC(C)=O		inactive	
CCCCCCc1cc2c(=O)c(-c3ccccc3OC)c(C(F)(F)F)oc2cc1OC(C)=O			remaining at 0.5 h, 10 µM [4]: 0%
CCCCCCc1cc2c(=O)c(-c3ccccc3OC)c(C)oc2cc1OC(=O)N(C)C		inactive	IC50 [8]: Not Active
CCCCc1cc2c(=O)c(-c3ccccc3OC)c(C)oc2cc1OC(C)=O		inactive	
